This is an account of results in patent EP4603105A1, “PHARMACEUTICAL COMPOSITION CONTAINING CYCLIC COMPOUND HAVING SELECTIVE KRAS INHIBITORY EFFECT AGAINST HRAS AND NRAS” (CHUGAI SEIYAKU KABUSHIKI KAISHA, priority 2022, dated 2024).

For experiment [1], the target named is GDP-bound KRAS wild-type protein (Homo sapiens, UniProt P01116). The experiment is described as follows: Binding to KRAS by surface plasmon resonance (SPR), dissociation constant KD. The method, boiled down:
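SPR, 30°C: Avi-biotin RAS·GDP captured via Biotin CAPture (~100–300 RU); running buffer HBS pH 7.4, 1 mM DTT, 10 mM MgCl2, 0.01% Tween 20, 10 µM GDP, 4% DMSO. Single-cycle kinetics, 100 µL/min, 75 s injections; 1:1 model → KD.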
A general note: Surface plasmon resonance follows binding to a sensor surface in real time, without labels.

The target in experiment [2] is GDP-bound NRAS wild-type protein (Homo sapiens, UniProt P01111). The experiment is described as follows: Binding to NRAS by surface plasmon resonance (SPR), KD and KD ratio to KRAS. Particulars: ratio of KD for GDP-bound NRAS wild-type protein to KD for KRAS. An outline of the steps:
(§1)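 Captured GDP-RAS (~100–300 RU) was exposed to increasing compound concentrations, 75 s per step, in running buffer with 10 µM GDP, 10 mM MgCl2 and 4% DMSO at pH 7.4.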

Experiment [3] concerns the target HRAS wild-type protein (Homo sapiens, UniProt P01112). As to the kind of experiment: Binding to HRAS by surface plasmon resonance (SPR), KD and KD ratio to KRAS. The note with it: ratio of KD for HRAS wild-type protein to KD for KRAS. The method, boiled down:
as §1

Experiment [4] has as its system human lung cancer strain NCI-H441. The experiment is classed as cell-based. The method, boiled down:
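Step one: dispense the test compound in serial DMSO dilutions. Step three: add the reagent and measure […].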

The subject of experiment [5] is human gastric cancer strain SNU-1. It counts as cell-based. As to the method: (§2) A test compound was dispensed into a U-bottom 384-well plate as 40 nL serially diluted dimethyl sulfoxide solutions using a liquid handler Echo (LABCYTE). As for human gastric cancer strain SNU-1 (ATCC), a cell suspension was prepared so as to have 250 cells/40 µL in an RPMI-1640 medium (Sigma) supplemented with 10% fetal bovine serum (Sigma), a 2.5 g/L D-(+)-glucose solution, 10 mmol/L HEPES, and 1 mmol/L sodium pyruvate. This cell suspension was dispensed in an amount of 40 µL per well into a plate containing the test compound, and cultured at 37°C in a 5% carbon dioxide gas incubator. Seven days later, 20 µL of CellTiter-Glo (registered trademark) (Promega) was added to each well and luminescence was measured.

For experiment [6], the system named is human pancreatic cancer strain KP4. The experiment is classed as cell-based. As to the method:
as §2, with “pancreatic” for “gastric”, “KP4 (Institute of Physical and Chemical Research),” for “SNU-1 (ATCC),”, “500” for “250”, “a DMEM/Ham's F-12” for “an RPMI-1640”, “(Nacalai Tesque)” for “(Sigma)”, “(Sigma).” for “(Sigma), a 2.5 g/L D-(+)-glucose solution, 10 mmol/L HEPES, and 1 mmol/L sodium pyruvate.”

The subject of experiment [7] is human colorectal cancer strain GP2d. It counts as cell-based. As to the method:
as §2, with “colorectal” for “gastric”, “GP2d (ECACC),” for “SNU-1 (ATCC),”, “500” for “250”, “a Dulbecco's modified Eagle” for “an RPMI-1640”, “medium” for “medium (Sigma)”, “(Sigma).” for “(Sigma), a 2.5 g/L D-(+)-glucose solution, 10 mmol/L HEPES, and 1 mmol/L sodium pyruvate.”

Experiment [8] deals with human gastric cancer strain GSU. The experiment is classed as cell-based. As to the method:
as §2, with “GSU (Institute of Physical and Chemical Research),” for “SNU-1 (ATCC),”, “200” for “250”, “(Sigma).” for “(Sigma), a 2.5 g/L D-(+)-glucose solution, 10 mmol/L HEPES, and 1 mmol/L sodium pyruvate.”

The test system of experiment [9] is human ovarian cancer strain OV7. It counts as cell-based. As to the method: A test compound was dispensed into a U-bottom 384-well plate as 40 nL serially diluted dimethyl sulfoxide solutions using a liquid handler Echo (LABCYTE). As for human ovarian cancer strain OV7 (ECACC), a cell suspension was prepared so as to have 250 cells/40 µL in a DMEM/Ham's F-12 medium (Nacalai Tesque) supplemented with 5% fetal bovine serum (Sigma), 0.5 µg/mL hydrocortisone, and 10 µg/mL insulin. This cell suspension was dispensed in an amount of 40 µL per well into a plate containing the test compound, and cultured at 37°C in a 5% carbon dioxide gas incubator. Seven days later, 20 µL of CellTiter-Glo (registered trademark) (Promega) was added to each well and luminescence was measured.

Experiment [10] relates to human bladder cancer strain UM-UC-3. It counts as cell-based. As to the method: as §2, with “human bladder” for “human gastric”, “strain UM-UC-3” for “strain SNU-1”, “an MEM” for “an RPMI-1640”, “medium (Nacalai Tesque)” for “medium (Sigma)”, “(Sigma), an MEM non-essential amino acids solution (100X),” for “(Sigma), a 2.5 g/L D-(+)-glucose solution, 10 mmol/L HEPES,”, “measured. […]” for “measured.”

Structures are written as SMILES.

Chain of GDP-bound KRAS wild-type protein (P01116 1-188 isoform P01116-2): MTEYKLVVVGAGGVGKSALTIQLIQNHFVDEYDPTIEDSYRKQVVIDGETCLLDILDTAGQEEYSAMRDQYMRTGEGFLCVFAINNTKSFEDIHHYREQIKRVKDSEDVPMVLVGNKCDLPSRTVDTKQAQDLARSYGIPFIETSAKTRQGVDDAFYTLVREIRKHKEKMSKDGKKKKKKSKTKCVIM
Chain of GDP-bound NRAS wild-type protein (P01111 whole entry): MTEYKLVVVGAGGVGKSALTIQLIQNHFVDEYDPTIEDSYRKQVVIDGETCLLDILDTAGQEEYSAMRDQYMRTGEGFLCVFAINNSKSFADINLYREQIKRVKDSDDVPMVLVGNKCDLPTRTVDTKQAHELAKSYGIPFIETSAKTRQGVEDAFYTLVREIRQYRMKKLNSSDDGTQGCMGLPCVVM
Chain of HRAS wild-type protein (P01112 whole entry): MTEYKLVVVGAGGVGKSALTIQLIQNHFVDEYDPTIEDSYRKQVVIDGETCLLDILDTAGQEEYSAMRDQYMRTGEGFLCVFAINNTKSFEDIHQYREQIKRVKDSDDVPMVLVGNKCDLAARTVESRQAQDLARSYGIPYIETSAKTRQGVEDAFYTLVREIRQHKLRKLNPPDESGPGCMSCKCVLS

`CCO[C@@H]1C[C@H]2C(=O)NC3(CC(C)(C)C3)C(=O)N(C)[C@@H](C3CCCC3)C(=O)N(C)[C@H](C(=O)N(C)C)CC(=O)N(C)[C@@H]([C@@H](C)OC)C(=O)N[C@@H]([C@@H](C)CC)C(=O)N(C)CC(=O)N(C)[C@H]3C/C=C\CCN(C3=O)[C@@H](Cc3ccc(C(F)(F)F)cc3)C(=O)N(C)CC(=O)N[C@@H](CCc3ccc(C(F)(F)F)c(OC)c3)C(=O)N2C1` [PP3194, (2S,8S,12R,14S,20S,23S,27S,30S,36S,38Z)-20-cyclopentyl-12-ethoxy-27-[(1R)-1-methoxyethyl]-8-[2-[3-methoxy-4-(trifluoromethyl)phenyl]ethyl]-N,N,3',3',4,19,22,26,32,35-decamethyl-30-[(1S)-1-methylpropyl]-3,6,9,15,18,21,25,28,31,34,42-undecaoxo-2-[[4-(trifluoromethyl)phenyl]methyl]spiro[1,4,7,10,16,19,22,26,29,32,35-undecazatricyclo[34.5.1.0^10,14]dotetracont-38-ene-17,1'-cyclobutane]-23-carboxamide]: the Kd in experiment [1] (1:1 binding model) was determined as 0.041 nM. The “NRAS /KRAS” value in experiment [2] was “A (a compound having 10 or more and less than 20 is denoted as A)”. Further, the “HRAS /KRAS” value in experiment [3] was “A (a compound having 10 or more and less than 20 is denoted as A)”. The IC50 in experiment [4] is 2.9 nM; in experiment [5], 2.5 nM; in experiment [6], 6.8 nM; in experiment [7], 2.8 nM; in experiment [8], 0.6 nM; in experiment [9], 7.7 nM. In experiment [10], this compound displayed an IC50 of 2.7 nM.
`CCC[C@H]1C(=O)N[C@@H]([C@@H](C)CC)C(=O)N2CCC[C@H]2C(=O)N(C)[C@H]2C/C=C\CCN(C2=O)[C@@H](Cc2ccc(C(F)(F)F)cc2)C(=O)N(C)CC(=O)N[C@@H](CCc2ccc(C(F)(F)F)c(OC)c2)C(=O)N2C[C@H](OCC)C[C@H]2C(=O)OC2(CCC2)C(=O)N(C)[C@@H](C2CCCC2)C(=O)N(C)[C@H](C(=O)N(C)C)CC(=O)N1C` [PP3368, (1S,4S,10S,13S,17S,20S,26S,28R,32S,38S,42Z)-20-cyclopentyl-28-ethoxy-32-[2-[3-methoxy-4-(trifluoromethyl)phenyl]ethyl]-N,N,2,14,18,21,36-heptamethyl-10-[(1S)-1-methylpropyl]-3,9,12,15,19,22,25,31,34,37,45-undecaoxo-13-propyl-38-[[4-(trifluoromethyl)phenyl]methyl]spiro[24-oxa-2,8,11,14,18,21,30,33,36,39-decazatetracyclo[37.5.1.0^4,8.0^26,30]pentatetracont-42-ene-23,1'-cyclobutane]-17-carboxamide]: the dissociation constant Kd in [1] (Single Cycle Kinetics) came to 0.57 nM. Also, in experiment [2], the “NRAS /KRAS” value was “A (a compound having 10 or more and less than 20 is denoted as A)”. Also, the “HRAS /KRAS” value in experiment [3] is “A (a compound having 10 or more and less than 20 is denoted as A)”. Moreover, the IC50 in experiment [4] is 11.9 nM; in [5] it was 20.4 nM; in experiment [6], 18.6 nM; in experiment [7] it was 22.6 nM; in experiment [8] it was 2.8 nM; in [9] it was 42.5 nM. The midpoint of inhibition in experiment [10], the IC50, lay at 13.9 nM.
In experiment [1] (Single Cycle Kinetics), `CCO[C@@H]1C[C@H]2C(=O)N(C)C3(CCC3)C(=O)N(C)[C@@H](C3CCCC3)C(=O)N(C)[C@H](C(=O)N(C)C)CC(=O)N(C)[C@@H](CC(C)C)C(=O)N[C@@H]([C@@H](C)CC)C(=O)N(C)CC(=O)N(C)[C@H]3C/C=C\CCN(C3=O)[C@@H](Cc3ccc(C(F)(F)F)cc3)C(=O)N(C)CC(=O)N[C@@H](CCc3cc(F)c(C(F)(F)F)c(F)c3)C(=O)N2C1` [PP3484, (2S,8S,12R,14S,20S,23S,27S,30S,36S,38Z)-20-cyclopentyl-8-[2-[3,5-difluoro-4-(trifluoromethyl)phenyl]ethyl]-12-ethoxy-27-isobutyl-N,N,4,16,19,22,26,32,35-nonamethyl-30-[(1S)-1-methylpropyl]-3,6,9,15,18,21,25,28,31,34,42-undecaoxo-2-[[4-(trifluoromethyl)phenyl]methyl]spiro[1,4,7,10,16,19,22,26,29,32,35-undecazatricyclo[34.5.1.0^10,14]dotetracont-38-ene-17,1'-cyclobutane]-23-carboxamide] came in with a dissociation constant Kd of 0.027 nM. The “NRAS /KRAS” value in experiment [2] was “A (a compound having 10 or more and less than 20 is denoted as A)”. The “HRAS /KRAS” value in experiment [3] was “A (a compound having 10 or more and less than 20 is denoted as A)”. For the same compound, the IC50 amounted to 2.2 nM in experiment [4]; 3.1 nM in experiment [5]; 1.9 nM in experiment [6]; 1.8 nM in experiment [7]; 0.6 nM in [8]; 4.1 nM in [9]. Moreover, half-maximal inhibition in [10] (IC50) was put at 0.9 nM.
On to `C#CC[C@H]1C(=O)N[C@@H]([C@@H](C)CC)C(=O)N2CCC[C@H]2C(=O)N(C)[C@H]2C/C=C\CCN(C2=O)[C@@H](Cc2ccc(C)cc2)C(=O)N(C)CC(=O)N[C@@H](CCc2ccc(C(F)(F)F)c(OC)c2)C(=O)N2C[C@H](OCC)C[C@H]2C(=O)N(C)C2(CCC2)C(=O)N(C)[C@@H](C2CCCC2)C(=O)N(C)[C@H](C(=O)N(C)C)CC(=O)N1C` [PP3255, (1S,4S,10S,13S,17S,20S,26S,28R,32S,38S,42Z)-20-cyclopentyl-28-ethoxy-32-[2-[3-methoxy-4-(trifluoromethyl)phenyl]ethyl]-N,N,2,14,18,21,24,36-octamethyl-10-[(1S)-1-methylpropyl]-3,9,12,15,19,22,25,31,34,37,45-undecaoxo-13-prop-2-ynyl-38-(p-tolylmethyl)spiro[2,8,11,14,18,21,24,30,33,36,39-undecazatetracyclo[37.5.1.0^4,8.0^26,30]pentatetracont-42-ene-23,1'-cyclobutane]-17-carboxamide], for which the Kd in experiment [1] (Single Cycle Kinetics) amounted to 0.1 nM. Further, the “NRAS /KRAS” value in [2] is “A (a compound having 10 or more and less than 20 is denoted as A)”. The “HRAS /KRAS” value in experiment [3] was “A (a compound having 10 or more and less than 20 is denoted as A)”. For the same compound, the IC50 in experiment [4] is 5.7 nM; in experiment [5] it was 6.6 nM; in experiment [6] it was 9.3 nM; in experiment [7], 3.8 nM; in [8], 1.9 nM; in [9], 7.1 nM. For the same compound, the IC50 in [10] was found to be 3.7 nM.

For orientation: Kd means the equilibrium constant for the complex coming apart. High values mean weaker binding, low ones tighter binding. As usually defined, the IC50 is the point on the concentration scale where inhibition reaches its midpoint. A high value points to lower potency.
